Holding throughout (conditions): Na2HPO4-citric acid buffer, pH 5.0, 40 °C, 15 min, 5–150 mM L-Glu
For assay [1], the system named is GADZ1. From the text: HPLC of GABA (DABS-Cl derivatisation), initial rate nonlinear fit on GADZ1
Assay [2] has as its system GADZ11. From the text:
HPLC of GABA (DABS-Cl derivatisation), initial rate nonlinear fit on GADZ11

The subject of assay [3] is GADZ20. From the text: HPLC of GABA (DABS-Cl derivatisation), initial rate nonlinear fit on GADZ20

In general, Km refers to the concentration of substrate that gives half-maximal velocity. Consider `N[C@@H](CCC(=O)O)C(=O)O` [L-Glu], for which the values for the Km in assay [1], in assay [2] and in assay [3] were 45.4 ± 8.63 mM, 52.4 ± 5.44 mM and 13.3 ± 1.95 mM, respectively.

The values above are taken from article PMC8336373, “Characterization of three glutamate decarboxylases from Bacillus spp. for efficient γ-aminobutyric acid production” (Microbial Cell Factories, 2021).
